Test results published in patent US9867811B2, “Method of treating atherosclerosis in high triglyceride subjects” (NOVARTIS AG, priority 2011, dated 2018).
Where two headings read alike, the source gives them in different places.

Tests used:
[1] = target: T1, CETP (Homo sapiens, UniProt P11597); test: In vitro CETP activity assay in human plasma (serum pools of differing triglyceride level); type: biochemical; conditions: human serum pool
T1 construct: Human serum samples were obtained from the Novartis Institutes for BioMedical Research donor program; tissue Novartis donor program; Bioreclamation (Westbury, N.Y.); Uniglobe (Reseda, Calif.); host or cells: pooled human donor serum
T1 sequence (P11597 18-493): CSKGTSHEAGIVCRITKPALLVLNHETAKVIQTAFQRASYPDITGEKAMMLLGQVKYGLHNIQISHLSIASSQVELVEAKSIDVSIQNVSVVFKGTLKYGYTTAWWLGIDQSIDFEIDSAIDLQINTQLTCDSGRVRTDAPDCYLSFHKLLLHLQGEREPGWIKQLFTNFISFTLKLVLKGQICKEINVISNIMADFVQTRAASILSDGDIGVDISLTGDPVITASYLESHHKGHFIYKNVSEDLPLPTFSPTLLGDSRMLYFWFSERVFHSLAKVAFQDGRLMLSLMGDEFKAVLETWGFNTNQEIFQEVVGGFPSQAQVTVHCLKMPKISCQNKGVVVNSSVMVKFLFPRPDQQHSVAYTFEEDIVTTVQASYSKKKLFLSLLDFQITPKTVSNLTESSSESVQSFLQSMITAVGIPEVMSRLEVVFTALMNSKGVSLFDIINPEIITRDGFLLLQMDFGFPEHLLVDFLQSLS
Experimental: Pro-apoA-1 containing microemulsion as a donor particle was prepared following previous report (J. Biol. Chem., 280:14918-22). Glyceryl trioleate (500 ug, Sigma-Aldrich, Cat. No. T7140), 3-sn-phosphatidylcholine (4680 ug, Sigma, Cat. No. P2772), and cholesteryl BODIPY FL 012 (2 mg, Invitrogen, CA, Cat. No. C-3927MP) were dissolved in 1.5 mL of chloroform. The solution was evaporated, and residual solvent was removed under vacuum for more than 1 hr at room temperature. The dried lipid mixture was dissolved in 7 ml of the assay buffer (50 mM Tris-HCl (pH 7.4) containing 150 mM NaCl and 2 mM EDTA) and sonicated in water bath for 1 hr. The solution was split into two tubes of 3.5 ml each. Each tube was sonicated at 50° C. with a microtip (MICROSON™ ULTRASONIC CELL DISRUPTOR, Misonix, Farmingdale, N.Y.) at output power 006 for 10 min (every other 25 seconds). The solution was cooled to 40° C. and 400 ug of pro-apoA-1 was added to each tube (total volume of 4 mL). Then, the solution was sonicated at output power 004 for 20 min (every other 30 seconds). Final Concentration: Glyceryl Tiroleate: 62.5 ug/ml, PC: 585 ug/ml, Bodipy CE: 250 ug/ml, Pro-apoA-1: 100 ug/ml. Centrifuge solution at 5200×g for 5 minutes and store the supernatant at 4′C.
Human serum samples were obtained from the Novartis Institutes for BioMedical Research donor program (normal triglyceride samples) or purchased from Bioreclamation (Westbury, N.Y.) or Uniglobe (Reseda, Calif.). General requirements for human serum donors included: male gender, 20-55 years of age, not currently on a lipid altering medication, non-fasting at time of blood collection, and a total cholesterol level between 200-300 mg/dL. Donor samples were selected primarily on the basis of serum triglyceride level, using the following classifications: normal triglycerides (<150 mg/dL); high triglycerides (300-500 mg/dL); and very high triglycerides (750-1200 mg/dL). A total of 4 individual serum samples from each classification were used in these experiments. For each of the 3 triglyceride classifications, two serum sample pools were prepared. The mean plasma triglyceride concentrations (mg/dL) for the pools were: Normal: 101.35; High: 347.5; Very high 1, 868.45; Very high 2, 1269.35.
Donor solution is prepared by a dilution of donor microemulsion with assay buffer (1.7 ul donor+8.3 ul Buffer). Human serum (25 μL), assay buffer (14 μL) and 50× test compound dissolved in 100% dimethylsulfoxide (1 μL) are added to each well of 384 well black, clear-bottom plate (NUNC. Thermo Fisher #242764). The reaction is started by the addition of donor solution (10 μL) into each well. Fluorescence intensities are measured every 10 min at 37° C. with excitation wave length of 485 nm and emission wavelength of 515 nm over an 80 minute period, using a SpectraMax M5 from Molecular Devices (Sunnyvale, Calif.). The CETP activity (RFU/min) is defined as the change of fluorescence intensity from 40 to 70 min. Percent CETP inhibition is calculated as follows: ((100% Act−Wellcmpnd)/100% Act))*100. IC50 values were calculated with GraphPad Prism 5 software.

[2] = test system: CETP; test: Ex vivo CETP activity in plasma of hamsters (saline or Triton WR-1339 treated); conditions: hamster
Experimental: Nine- to ten-week-old, male golden Syrian hamsters were purchased from Japan SLC Inc. (Shizuoka, Japan). Animals underwent a more than 1-week acclimation period under the following conditions: 8:00/20:00 light/dark cycle, room temperature 23±2° C. […] During this time, animals received filtered (0.5 μm) water and a standard chow diet ad libitum.
Whole blood samples were collected using a heparin-washed syringe (Heparin sodium injection “Ajinomoto”; Ajinomoto, Tokyo, Japan) from the abdominal vein by venipuncture under isoflurane (Abbott Japan Co. Ltd.) inhalant anesthesia. After centrifugation at 15,000 rpm for 10 min at 4° C., heparinized plasma was prepared and stored at −80° C. until use.
CETP activity (RFU/min) was defined as the change in fluorescence intensity from 30 to 90 min.
The effect of an acute increase of plasma triglycerides in vivo (acute increase in triglyceride-rich particles) on the ability of Torcetrapib to alter plasma CETP activity, triglyceride and total cholesterol levels was investigated. Torcetrapib at doses of 3, 10 or 30 mg/kg or vehicle was administered once by gavage to hamsters fed a standard chow diet.
Compound or vehicle was administered once by gavage to hamsters fed a standard chow diet.

[3] = test system: CETP; test: Ex vivo plasma CETP activity assay with exogenously added compound (maximum inhibition); type: biochemical; conditions: 10 μM, hamster plasma (80% plasma)
Experimental: Plasma CETP activity ex vivo was determined as followed: 50 μL of hamster plasma (final 80% plasma) was mixed with 10 μL of donor solution diluted with assay buffer composed of 50 mM Tris-HCl (pH7.4) containing 150 mM NaCl and 2 mM EDTA in a 96-well half area black flat bottom plate (Cat. No. 3686, Corning, Corning, N.Y.). Fluorescence intensity was measured every 15 min at an excitation wave length of 485 nm and an emission wavelength of 535 nm for 120 min at 37° C. using ARVO SX+L (PerkinElmer, Wellesley, Mass.). CETP activity (RFU/min) was defined as the change in fluorescence intensity from 30 to 90 min.

[4] = TG = 101.35 mg/dL (normal), read-out: CETP IC50 (nM) TG = 101.35 mg/dL
[5] = TG = 374.5 mg/dL (high), read-out: CETP IC50 (nM) TG = 374.5 mg/dL
[6] = TG = 868.45 mg/dL (very high 1), read-out: CETP IC50 (nM) TG = 868.45 mg/dL
[7] = TG = 1269.35 mg/dL (very high 2), read-out: CETP IC50 (nM) TG = 1269.35 mg/dL

SMILES | IC50 [1, 4] [nM] | IC50 [1, 5] [nM] | IC50 [1, 6] [nM] | IC50 [1, 7] [nM] | Inhibition of CETP activity, lower dose group, Triton WR-1339 group ([2]; oral gavage: Torcetrapib 5 mg/kg, Anacetrapib 1.5 mg/kg, Example 49 1.5 mg/kg, Example 8 0.75 mg/kg, Triton WR-1339 100 mg/kg i.v., not significant vs vehicle) [%] | Inhibition of CETP activity, lower dose group, saline group ([2]; oral gavage: Torcetrapib 5 mg/kg, Anacetrapib 1.5 mg/kg, Example 49 1.5 mg/kg, Example 8 0.75 mg/kg, saline i.v.) [%] | Inhibition of CETP activity, higher dose group, Triton WR-1339 group ([2]; oral gavage: Torcetrapib 10 mg/kg, Anacetrapib 3 mg/kg, Example 49 3 mg/kg, Example 8 1.5 mg/kg, Triton WR-1339 100 mg/kg i.v.) [%] | Inhibition of CETP activity, higher dose group, saline group ([2]; oral gavage: Torcetrapib 10 mg/kg, Anacetrapib 3 mg/kg, Example 49 3 mg/kg, Example 8 1.5 mg/kg, saline i.v.) [%] | Maximum inhibition of CETP activity, compound exogenously added, Triton WR-1339 group ([3]; Triton WR-1339 group) [%] | Maximum inhibition of CETP activity, compound exogenously added, saline group ([3]; saline group) [%]
CC[C@@H]1C[C@H](N(Cc2cc(C(F)(F)F)cc(C(F)(F)F)c2)c2ncc(-c3cnn(C)c3)cn2)C[C@H](CC)N1C(=O)O[C@H]1C[C@H](C(=O)O)C1 [Example 17] | 114 | 62.7 | 40.2 | 29.6 |  |  |  |  |  | 
Cn1nnc(N(Cc2cc(C(F)(F)F)cc(C(F)(F)F)c2)Cc2cc3cc(F)c(F)cc3nc2N2CCC[C@@H]2[C@H]2CC[C@H](C(=O)O)CC2)n1 [Example 49] | 22.1 | 42.7 | 37.1 | 46.4 | 26 | 63 | 38 | 77 | ~100 | ~100
Cc1cc(C)c2c(c1)[C@@H](N(Cc1cc(C(F)(F)F)cc(C(F)(F)F)c1)c1nnn(C)n1)CCCN2C[C@H]1CC[C@H](C(=O)O)CC1 [Example 53] | 48.7 | 49.8 | 54.4 | 92.3 |  |  |  |  |  | 
CCN(C[C@H]1CC[C@H](CC(=O)O)CC1)c1ccc(C(F)(F)F)cc1CN(c1ncc(OCCS(C)(=O)=O)cn1)[C@@H](C)c1cc(C(F)(F)F)cc(C(F)(F)F)c1 [Example 57A] | 301 | 155 | 91.7 | 29.4 |  |  |  |  |  | 

More lines, in order of falling IC50 [1, 4], values ahead:

IC50 [1, 4] [nM] | IC50 [1, 5] [nM] | IC50 [1, 6] [nM] | IC50 [1, 7] [nM] | SMILES | Inhibition of CETP activity, lower dose group, Triton WR-1339 group ([2]; oral gavage: Torcetrapib 5 mg/kg, Anacetrapib 1.5 mg/kg, Example 49 1.5 mg/kg, Example 8 0.75 mg/kg, Triton WR-1339 100 mg/kg i.v., not significant vs vehicle) [%] | Inhibition of CETP activity, lower dose group, saline group ([2]; oral gavage: Torcetrapib 5 mg/kg, Anacetrapib 1.5 mg/kg, Example 49 1.5 mg/kg, Example 8 0.75 mg/kg, saline i.v.) [%] | Inhibition of CETP activity, higher dose group, Triton WR-1339 group ([2]; oral gavage: Torcetrapib 10 mg/kg, Anacetrapib 3 mg/kg, Example 49 3 mg/kg, Example 8 1.5 mg/kg, Triton WR-1339 100 mg/kg i.v.) [%] | Inhibition of CETP activity, higher dose group, saline group ([2]; oral gavage: Torcetrapib 10 mg/kg, Anacetrapib 3 mg/kg, Example 49 3 mg/kg, Example 8 1.5 mg/kg, saline i.v.) [%] | Maximum inhibition of CETP activity, compound exogenously added, Triton WR-1339 group ([3]; Triton WR-1339 group) [%] | Maximum inhibition of CETP activity, compound exogenously added, saline group ([3]; saline group) [%]
669 | 1300 | 2300 | 2700 | CCN(C[C@H]1CC[C@H](CC(=O)O)CC1)c1ccc(C(F)(F)F)cc1CN(c1ncc(OCCS(C)(=O)=O)cn1)[C@H](C)c1cc(C(F)(F)F)cc(C(F)(F)F)c1 [Example 57B] |  |  |  |  |  | 
82.2 | 151 | 280 | 372 | CCN(C[C@H]1CC[C@H](CC(=O)O)CC1)c1cc(C)c(C(F)(F)F)cc1CN(Cc1cc(C(F)(F)F)cc(C(F)(F)F)c1)c1nnn(C)n1 [Example 58] |  |  |  |  |  | 
71.9 | 116 |  | 540 | CC[C@@H]1C[C@H](N(Cc2cc(C(F)(F)F)cc(C(F)(F)F)c2)c2ncc(-c3cnn(C)c3)cn2)C[C@H](CC)N1C(=O)O[C@H]1CC[C@H](C(=O)O)CC1 [Example 19] |  |  |  |  |  | 
